In ChEMBL document CHEMBL1133903, “Thrombin receptor (PAR-1) antagonists. Solid-phase synthesis of indole-based peptide mimetics by anchoring to a secondary amide” (Bioorg Med Chem Lett, 2001):

How the values were obtained:
Homo sapiens [1] = species on record: Homo sapiens; test: In vitro inhibition of human platelet aggregation induced by 3 ug/ml collagen.; format: functional
Homo sapiens [2] = species on record: Homo sapiens; test: In vitro inhibition of human platelet aggregation induced by thromboxane mimetic U-46,619 at 0.3 uM.; format: functional, organism-based
[3] = molecular target: T1, Proteinase-activated receptor 1 (Homo sapiens, UniProt P25116); test: In vitro displacement of [3H]S-(p-F-Phe)-homoarginine-K Y-NH2 (at a concentration of 10 nM) from thrombin receptor (PAR-1) on the membranes of CHRF-288-11 cells
T1 sequence (P25116 whole entry): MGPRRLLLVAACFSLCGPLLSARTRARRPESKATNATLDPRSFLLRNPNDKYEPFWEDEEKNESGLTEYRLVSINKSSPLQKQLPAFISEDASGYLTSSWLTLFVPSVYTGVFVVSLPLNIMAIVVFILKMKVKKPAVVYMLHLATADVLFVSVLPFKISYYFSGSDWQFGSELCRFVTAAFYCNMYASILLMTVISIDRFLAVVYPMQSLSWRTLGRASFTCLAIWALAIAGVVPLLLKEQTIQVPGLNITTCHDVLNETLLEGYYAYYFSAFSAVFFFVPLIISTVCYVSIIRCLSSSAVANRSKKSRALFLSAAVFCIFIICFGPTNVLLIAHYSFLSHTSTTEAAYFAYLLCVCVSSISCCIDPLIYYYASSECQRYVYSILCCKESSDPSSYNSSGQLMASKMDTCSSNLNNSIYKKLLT

Homo sapiens [4] = species on record: Homo sapiens; test: In vitro inhibition of human platelet aggregation induced by collagen (at a concentration of 3 ug/mL); IA means Inactive at 50 uM; format: functional
Homo sapiens [5] = species on record: Homo sapiens; test: In vitro inhibition of human platelet aggregation induced by thromboxane mimetic U-46,619 (at a concentration of 0.3 uM); format: functional
Homo sapiens [6] = species on record: Homo sapiens; test: In vitro inhibition of human platelet aggregation induced by SFLLRN-NH2 (at a concentration of 2 uM); IA means Inactive at 50 uM; format: functional
Homo sapiens [7] = species on record: Homo sapiens; test: In vitro inhibition of human platelet aggregation induced by collagen (at a concentration of 3 ug/mL); In active at 50 uM concentration; format: functional
Homo sapiens [8] = species on record: Homo sapiens; test: In vitro inhibition of human platelet aggregation induced by thromboxane mimetic U-46,619 (at a concentration of 0.3 uM concentration; format: functional

SMILES | IC50 (Homo sapiens [1]) | IC50 (Homo sapiens [2]) | IC50 [3] | IC50 (Homo sapiens [4]) | IC50 (Homo sapiens [5]) | IC50 (Homo sapiens [6]) | IC50 (Homo sapiens [7]) | IC50 (Homo sapiens [8])
Cc1ccccc1Cn1cc(CN2CCCC2)c2ccc(NC(=O)N[C@@H](Cc3ccc([N+](=O)[O-])cc3)C(=O)N[C@@H](CCCN=C(N)N)C(=O)NCc3ccccc3)cc21 | 20.6 µM | Not Active | 0.8 µM | – | – | – | – | –
COc1ccc(C[C@H](NC(=O)Nc2ccc3c(CN4CCCC4)cn(Cc4ccc(F)cc4)c3c2)C(=O)N[C@@H](CCCN=C(N)N)C(=O)NCc2ccccc2)cc1 | – | Not Active | 2.2 µM | Not Active | – | – | – | –
COc1ccc(C[C@H](NC(=O)Nc2ccc3c(CN4CCCC4)cn(Cc4ccc(F)cc4)c3c2)C(=O)N[C@@H](CCCN=C(N)N)C(=O)NCCCc2ccccc2)cc1 | 16.1 µM | – | – | – | 21.4 µM | – | – | –
NC(=O)CCC(NC(=O)[C@H](Cc1ccc(F)c(F)c1)NC(=O)Nc1ccc2c(CN3CCCC3)cn(Cc3c(Cl)cccc3Cl)c2c1)C(=O)NCc1ccccc1 (some centres undefined) | – | Not Active | 1.8 µM | Not Active | – | – | – | –
COc1ccc(C[C@H](NC(=O)Nc2ccc3c(CN4CCCCC4)cn(Cc4ccc(OC(F)(F)F)cc4)c3c2)C(=O)N[C@@H](CCCNC(=N)N)C(=O)NCC2CCCCC2)cc1 | 33.1 µM | – | 5.6 µM | – | 43.5 µM | – | – | –
COC(=O)c1ccc(Cn2cc(CN3CCCC3)c3ccc(NC(=O)N[C@@H](Cc4ccc(OC)cc4)C(=O)N[C@@H](CCCN=C(N)N)C(=O)NCC4CCCCC4)cc32)cc1 | – | Not Active | 3.5 µM | Not Active | – | Not Active | – | –
COc1ccc(C[C@H](NC(=O)Nc2ccc3c(CN4CCCCC4)cn(Cc4ccc(F)cc4)c3c2)C(=O)N[C@@H](CCCN=C(N)N)C(=O)NCC2CCCCC2)cc1 | 26.1 µM | – | – | – | 26.2 µM | – | – | –
COc1ccc(C[C@H](NC(=O)Nc2ccc3c(CN4CCCC4)cn(Cc4ccc(OC(F)(F)F)cc4)c3c2)C(=O)N[C@@H](CCCNC(=N)N)C(=O)NCC2CCCCC2)cc1 | 40.4 µM | – | 2.5 µM | – | 33 µM | – | – | –
N=C(N)NCCC[C@H](NC(=O)[C@H](Cc1ccc([N+](=O)[O-])cc1)NC(=O)Nc1ccc2c(CN3CCCC3)cn(Cc3ccc(F)cc3)c2c1)C(=O)NCc1ccccc1 | 16.5 µM | Not Active | 1.1 µM | – | – | – | – | –
NCC(NC(=O)[C@H](Cc1ccc(F)c(F)c1)NC(=O)Nc1ccc2c(CN3CCCC3)cn(Cc3c(Cl)cccc3Cl)c2c1)C(=O)NCc1ccccc1 (some centres undefined) | 36.9 µM | Not Active | 0.92 µM | – | – | – | – | –
N#Cc1ccc(C[C@H](NC(=O)Nc2ccc3c(CN4CCCC4)cn(Cc4c(Cl)cccc4Cl)c3c2)C(=O)N[C@@H](CCCNC(=N)N)C(=O)NCc2ccccc2)cc1 | – | Not Active | – | Not Active | – | – | – | –
O=C(Nc1ccc2c(CN3CCCC3)cn(Cc3c(Cl)cccc3Cl)c2c1)N[C@@H](Cc1ccc(F)c(F)c1)C(=O)NC(Cc1c[nH]cn1)C(=O)NCc1ccccc1 (some centres undefined) | 34 µM | Not Active | 1.3 µM | – | – | – | – | –
COc1ccc(C[C@H](NC(=O)Nc2ccc3c(CN4CCCCC4)cn(Cc4cccc(C)c4)c3c2)C(=O)N[C@@H](CCCNC(=N)N)C(=O)NCC2CCCCC2)cc1 | 27.5 µM | – | 3.2 µM | – | 36.3 µM | – | – | –
NC(=O)NCCCC(NC(=O)[C@H](Cc1ccc(F)c(F)c1)NC(=O)Nc1ccc2c(CN3CCCC3)cn(Cc3c(Cl)cccc3Cl)c2c1)C(=O)NCc1ccccc1 (some centres undefined) | – | Not Active | 0.24 µM | Not Active | – | – | – | –
CSCCC(NC(=O)[C@H](Cc1ccc(F)c(F)c1)NC(=O)Nc1ccc2c(CN3CCCC3)cn(Cc3c(Cl)cccc3Cl)c2c1)C(=O)NCc1ccccc1 (some centres undefined) | – | Not Active | 11.2 µM | Not Active | – | – | – | –
N=C(N)NCCC[C@H](NC(=O)[C@H](Cc1ccc(F)c(F)c1)NC(=O)Nc1ccc2c(CN3CCCC3)cn(Cc3c(Cl)cccc3Cl)c2c1)C(=O)NCc1ccccc1 | – | Not Active | 0.82 µM | Not Active | – | – | – | –
COc1ccc(C[C@H](NC(=O)Nc2ccc3c(CN4CCCC4)cn(Cc4ccccc4Cl)c3c2)C(=O)N[C@@H](CCCN=C(N)N)C(=O)NCCCc2ccccc2)cc1 | 12 µM | – | 0.38 µM | – | 44.4 µM | – | – | –
COc1ccc(C[C@H](NC(=O)Nc2ccc3c(CN4CCCCC4)cn(Cc4ccccc4C)c3c2)C(=O)N[C@@H](CCCN=C(N)N)C(=O)NCCCc2ccccc2)cc1 | 13 µM | Not Active | 0.73 µM | – | – | – | – | –
NCCC(NC(=O)[C@H](Cc1ccc(F)c(F)c1)NC(=O)Nc1ccc2c(CN3CCCC3)cn(Cc3c(Cl)cccc3Cl)c2c1)C(=O)NCc1ccccc1 (some centres undefined) | – | – | 0.44 µM | – | – | – | Not Active | Not Active
CCN(CC)Cc1cn(Cc2ccccc2C)c2cc(NC(=O)N[C@@H](Cc3ccc(OC)cc3)C(=O)N[C@@H](CCCN=C(N)N)C(=O)NCCCc3ccccc3)ccc12 | 17 µM | Not Active | 2.5 µM | – | – | – | – | –
COc1ccc(C[C@H](NC(=O)Nc2ccc3c(CN4CCCC4)cn(Cc4ccccc4C)c3c2)C(=O)N[C@@H](CCCN=C(N)N)C(=O)NCCCc2ccccc2)cc1 | 11.9 µM | – | 1 µM | – | 44.2 µM | – | – | –
COc1ccc(C[C@H](NC(=O)Nc2ccc3c(CN4CCCC4)cn(Cc4ccc(F)cc4)c3c2)C(=O)N[C@@H](CCCN=C(N)N)C(=O)NCC2CCCCC2)cc1 | 37.6 µM | – | 2.6 µM | – | 12.5 µM | – | – | –
NCCCC[C@H](NC(=O)[C@H](Cc1ccc(F)c(F)c1)NC(=O)Nc1ccc2c(CN3CCCC3)cn(Cc3c(Cl)cccc3Cl)c2c1)C(=O)NCc1ccccc1 | 21.3 µM | – | 0.3 µM | – | 41.9 µM | – | – | –
CCN(CC)Cc1cn(Cc2cccc(C)c2)c2cc(NC(=O)N[C@@H](Cc3ccc(OC)cc3)C(=O)N[C@@H](CCCN=C(N)N)C(=O)NCCCc3ccccc3)ccc12 | 10.2 µM | Not Active | 2.6 µM | – | – | – | – | –
Cc1ccccc1Cn1cc(CN2CCCC2)c2ccc(NC(=O)N[C@@H](Cc3ccc(C#N)cc3)C(=O)N[C@@H](CCCN=C(N)N)C(=O)NCc3ccccc3)cc21 | 25.9 µM | Not Active | 6.4 µM | – | – | – | – | –
COc1ccc(C[C@H](NC(=O)Nc2ccc3c(CN4CCC4)cn(Cc4ccc(F)cc4)c3c2)C(=O)N[C@@H](CCCN=C(N)N)C(=O)NCc2ccccc2)cc1 | – | Not Active | – | Not Active | – | – | – | –
NCCC[C@H](NC(=O)[C@H](Cc1ccc(F)c(F)c1)NC(=O)Nc1ccc2c(CN3CCCC3)cn(Cc3c(Cl)cccc3Cl)c2c1)C(=O)NCc1ccccc1 | 15.7 µM | Not Active | 0.5 µM | – | – | – | – | –
CCN(CC)Cc1cn(Cc2ccc(F)cc2)c2cc(NC(=O)N[C@@H](Cc3ccc(OC)cc3)C(=O)N[C@@H](CCCN=C(N)N)C(=O)NCC3CCCCC3)ccc12 | 25.8 µM | – | 3.1 µM | – | 39.5 µM | – | – | –
COc1ccc(C[C@H](NC(=O)Nc2ccc3c(CN4CCCC4)cn(Cc4c(Cl)cccc4Cl)c3c2)C(=O)N[C@@H](CCCNC(=N)N)C(=O)NCc2ccccc2)cc1 [RWJ-54003] | 46.3 µM | Not Active | 1.3 µM | – | – | – | – | –
